Each compound was assayed against 3-beta-hydroxysteroid-Delta(8),Delta(7)-isomerase (Homo sapiens, UniProt Q15125) (assay: Inhibition of human EBP isolated from HEK293T cells assessed as reduction in dihydrolathosterol-d5 formation using zymosterol-d5 as substrate pre incubated for 30 mins followed by substrate addition and incubated at 37 degC for 4 hrs by LC-APCI MRM MS analysis).
Chain of 3-beta-hydroxysteroid-Delta(8),Delta(7)-isomerase (Q15125 whole entry): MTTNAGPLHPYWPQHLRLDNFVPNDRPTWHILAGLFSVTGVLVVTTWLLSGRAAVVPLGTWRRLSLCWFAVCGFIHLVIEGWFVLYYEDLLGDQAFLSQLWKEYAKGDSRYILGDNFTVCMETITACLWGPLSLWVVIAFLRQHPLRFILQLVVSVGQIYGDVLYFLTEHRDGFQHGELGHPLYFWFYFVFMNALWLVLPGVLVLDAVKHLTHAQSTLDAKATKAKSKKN
Format: cell-free, HEK-293T
CC12CC(NC3CC4CCC(C3)N4S(=O)(=O)c3ccc(OC(F)F)cc3)(CO1)C2 (stereo unspecified) was tested, and the IC50 was less than 50 nM. Cc1cc(S(=O)(=O)N2[C@@H]3CC[C@H]2C[C@@H](CN2CCOCC2)C3)n(C)n1 showed an IC50 of less than 50 nM. For O=S(=O)(c1ccc(OC(F)F)cc1)N1C2CCC1CC(NC1CCOCC1)C2 (stereo unspecified), the IC50 was less than 50 nM. O=S(=O)(c1ccc(OC(F)F)cc1)N1[C@@H]2CC[C@H]1C[C@@H](NCC1(O)CCOCC1)C2 showed an IC50 of less than 50 nM. With CC1CCN([C@H]2C[C@H]3CC[C@@H](C2)N3S(=O)(=O)c2ccc(OC(F)F)cc2)CC1 the IC50 was less than 50 nM. In the case of O=S(=O)(c1ccc(OC(F)F)cc1)N1C2CCC1CC(NCC1CCOCC1)C2 (stereo unspecified), the IC50 is reported as less than 50 nM.
